Test results taken from patent publication US20190002436A1, “RESPIRATORY SYNCYTIAL VIRUS INHIBITORS” (MEDIVIR AB, priority 2015, published 2019).

What follows are compounds tested on RSV (Long) (assay: RSV cytopathic effect (CPE)-based viral replication assay). Settings: HEp-2 cells infected with RSV Long at MOI 0.015; 3 days at 37° C.; cell viability by CellTiter-Glo luminescence; read-out: EC50 (nm).
Format: cell-based, respiratory syncytial virus (RSV)
How it was run: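 HEp-2 cells, 2,500 per well in DMEM with 2% heat-inactivated FBS, treated with 10-point compound dilutions and infected with RSV Long at MOI 0.015. After 3 days at 37 °C, 5% CO2, viability read by CellTiter-Glo luminescence; EC50 derived from CPE data.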
CS(=O)(=O)N1CCC2(CC1)C(=O)N(Cc1ncc3ccccc3c1C1CNC(=O)C1)c1cnccc12 (stereo not shown) [Example 2018] was tested, and the EC50 was 50 nM.
In the case of O=C1CC(c2c(Cn3c(=O)n(C4CC4)c4ccncc43)ncc3ccccc23)CN1 (stereo not shown) [Example 2020], the EC50 is reported as 80 nM.
For COC(=O)NC1CC2(C1)C(=O)N(Cc1ncc3ccccc3c1-c1ccc(C#N)nc1)c1ccccc12 (stereo not shown) [Example 84-2], the EC50 was 4.5 nM.

Same assay, conditions: human respiratory syncytial virus, HEp-2, 72 h, HEp-2 cells infected with RSV Long at MOI 0.015; 3 days at 37° C.; cell viability by CellTiter-Glo luminescence; read-out: EC50 (nm)
Compound COC(=O)N1CC2(C1)C(=O)N(Cc1ncc3ccccc3c1CCCCO)c1ccccc12 [Example 28b, Methyl 1′-((4-(4-hydroxybutyl)isoquinolin-3-yl)methyl)-2′-oxospiro[azetidine-3,3′-indoline]-1-carboxylate] has an EC50 of 6.8 nM.
In the case of CS(=O)(=O)N1CC2(C1)C(=O)N(Cc1ncc3ccccc3c1-c1ccc(C#N)nc1)c1ccccc12 [Example 45], the EC50 is reported as 3 nM.
In the case of NC1(C(=O)N2CCC3(CC2)C(=O)N(Cc2ncc4ccccc4c2-c2cncs2)c2cnccc23)CC1 [Example 2024], the EC50 is reported as 8.2 nM.
NC1(CC(=O)N2CCC3(CC2)C(=O)N(Cc2ncc4ccccc4c2-c2cccnc2)c2cnccc23)CC1 [Example 145, 1-(2-(1-Aminocyclopropyl)acetyl)-1′-((4-(pyridin-3-yl)isoquinolin-3-yl)methyl)spiro[piperidine-4,3′-pyrrolo[2,3-c]pyridin]-2′(1′H)-one] was tested, and the EC50 was 8.1 nM.
For COC(=O)N1CCC(n2c(=O)n(Cc3ncc4ccccc4c3CCCCO)c3cnccc32)CC1 [Example 2d, Methyl 4-(3-((4-(4-hydroxybutyl)isoquinolin-3-yl)methyl)-2-oxo-2,3-dihydro-1H-imidazo[4,5-c]pyridin-1-yl)piperidine-1-carboxylate], the EC50 was 2 nM.
N#Cc1ccc(-c2c(CN3C(=O)C4(CN(C(N)=O)C4)c4ccccc43)ncc3ccccc23)cn1 [Example 77] was tested, and the EC50 was 3 nM.
NC(=O)c1ccc(-c2c(CN3C(=O)C4(CCN(C(=O)[C@H]5CCCN5)CC4)c4ccncc43)ncc3ccccc23)cn1 [Example 2013] gave an EC50 of 6.6 nM.
O=c1n(Cc2ncc3ccccc3c2CCCC(F)(F)F)c2cnccc2n1C1CC1 [Example 8e, 1-cyclopropyl-3-((4-(4,4,4-trifluorobutyl)isoquinolin-3-yl)methyl)-1H-imidazo[4,5-c]pyridin-2(3H)-one] was tested, and the EC50 was 9 nM.
Work on N[C@H]1CCN(c2ccc3c(CCCCO)c(Cn4c(=O)n(C5CC5)c5ccncc54)ncc3c2)C1 [Example 33, (S)-3-((7-(3-aminopyrrolidin-1-yl)-4-(4-hydroxybutyl)isoquinolin-3-yl)methyl)-1-cyclopropyl-1H-imidazo[4,5-c]pyridin-2(3H)-one] yielded an EC50 of 1300 nM.
CN(C)C1(C(=O)N2CC3(C2)C(=O)N(Cc2ncc4ccccc4c2-c2ccc(C(N)=O)nc2)c2ccccc23)CC1 [Example 113b, 5-(3-((1-(1-(Dimethylamino)cyclopropanecarbonyl)-2′-oxospiro[azetidine-3,3′-indolin]-1′-yl)methyl)isoquinolin-4-yl)picolinamide] gave an EC50 of 17 nM.
NC1(C(=O)N2CCC3(CC2)C(=O)N(Cc2ncc4ccccc4c2-c2ccncc2)c2cnccc23)CC1 [Example 2016] was tested, and the EC50 was 7.1 nM.
COC(=O)N1CC2(C1)C(=O)N(Cc1ncc3ccccc3c1-c1cnccn1)c1ccccc12 [Example 103, Methyl 2′-oxo-1′-((4-(pyrazin-2-yl)isoquinolin-3-yl)methyl)spiro[azetidine-3,3′-indoline]-1-carboxylate] was tested, and the EC50 was 18 nM.
With COC(=O)NC1CC2(C1)C(=O)N(Cc1ncc3ccccc3c1-c1ccc(C#N)nc1)c1ccccc12 (stereo not shown) [Example 84-1] the EC50 was 7.2 nM.
With O=C1N(Cc2ncc3ccccc3c2-c2ccc(F)nc2)c2ccccc2C12CN(CCF)C2 [Example 86, 1-(2-fluoroethyl)-1′-((4-(6-fluoropyridin-3-yl)isoquinolin-3-yl)methyl)spiro[azetidine-3,3′-indolin]-2′-one] the EC50 was 20 nM.
CNC1(C(=O)N2CCC3(CC2)C(=O)N(Cc2ncc4ccccc4c2-c2ccc(C#N)nc2)c2cnccc23)CC1 [Example 67, 5-(3-((1-(1-(Methylamino)cyclopropanecarbonyl)-2′-oxospiro[piperidine-4,3′-pyrrolo[2,3-c]pyridin]-1′(2′H)-yl)methyl)isoquinolin-4-yl)picolinonitrile] gave an EC50 of 8.2 nM.
For O=C1N(Cc2ncc3ccccc3c2CCCCO)c2ccccc2C12CNC2 [Example 40, 1′-((4-(4-Hydroxybutyl)isoquinolin-3-yl)methyl)spiro[azetidine-3,3′-indolin]-2′-one], the EC50 was 110 nM.
In the case of NC1(C(=O)N2CCC3(CC2)C(=O)N(Cc2ncc4ccccc4c2-c2nccs2)c2cnccc23)CC1 [Example 2012], the EC50 is reported as 380 nM.
Compound O=c1n(Cc2ncc3ccccc3c2-c2cccc(CO)c2)c2cnccc2n1C1CC1 [Example 10, 1-Cyclopropyl-3-((4-(3-(hydroxymethyl)phenyl)isoquinolin-3-yl)methyl)-1H-imidazo[4,5-c]pyridin-2(3H)-one] has an EC50 of 240 nM.
Work on CNC1(C(=O)N2CC3(C2)C(=O)N(Cc2ncc4ccccc4c2-c2ccc(C(N)=O)nc2)c2ccccc23)CC1 [Example 115c, 5-(3-((1-(1-(methylamino)cyclopropanecarbonyl)-2′-oxospiro[azetidine-3,3′-indolin]-1′-yl)methyl)isoquinolin-4-yl)picolinamide] yielded an EC50 of 15 nM.
NC1(C(=O)N2CCC3(CC2)C(=O)N(Cc2ncc4ccccc4c2-c2ccc(OC(F)(F)F)cc2)c2cnccc23)CC1 [Example 2036] was tested, and the EC50 was 23 nM.
COC(=O)N1CCC2(CC1)C(=O)N(Cc1ncc3ccccc3c1CCCS(C)(=O)=O)c1cnccc12 [Example 11c, Methyl 1′-((4-(3-(methylsulfonyl)propyl)isoquinolin-3-yl)methyl)-2′-oxo-1′,2′-dihydrospiro[piperidine-4,3′-pyrrolo[2,3-c]pyridine]-1-carboxylate] gave an EC50 of 88 nM.
CC1(n2c(=O)n(Cc3ncc4ccccc4c3-c3ccc(C4(N)CC4)nc3)c3cnccc32)CC1 [Example 2001] showed an EC50 of 9.5 nM.
CS(=O)(=O)N1CC2(C1)C(=O)N(Cc1ncc3ccccc3c1-c1cc(F)cc(F)c1)c1ccccc12 [Example 72] was tested, and the EC50 was 5.6 nM.
For COC(=O)N1CC2(C1)C(=O)N(Cc1ncc3cc(C#N)c(F)cc3c1-c1cccnc1)c1ccccc12 [Example 2039], the EC50 was 46 nM.
Work on CNC(=O)N1CC2(C1)C(=O)N(Cc1ncc3ccccc3c1CCCCO)c1ccccc12 [Example 38, 1′-((4-(4-hydroxybutyl)isoquinolin-3-yl)methyl)-N-methyl-2′-oxospiro[azetidine-3,3′-indoline]-1-carboxamide] yielded an EC50 of 6.4 nM.
NC1(C(=O)N2CC3(C2)C(=O)N(Cc2ncc4ccccc4c2-c2ccc(S(N)(=O)=O)nc2)c2ccccc23)CC1 [Example 124, 5-(3-((1-(1-Aminocyclopropanecarbonyl)-2′-oxospiro[azetidine-3,3′-indolin]-1′-yl)methyl)isoquinolin-4-yl)pyridine-2-sulfonamide] was tested, and the EC50 was 9.8 nM.
For CN(C)C(=O)c1ccc(-c2c(CN3C(=O)C4(CCN(C(=O)C5(N(C)C)CC5)CC4)c4ccncc43)ncc3ccccc23)cn1 [Example 119b, 5-(3-((1-(1-(dimethylamino)cyclopropanecarbonyl)-2′-oxospiro[piperidine-4,3′-pyrrolo[2,3-c]pyridin]-1′(2′H)-yl)methyl)isoquinolin-4-yl)-N,N-dimethylpicolinamide], the EC50 was 2.8 nM.
Work on NC(=O)c1ccc(-c2c(CN3C(=O)C4(CCN(C(=O)[C@@H]5CC(F)(F)CN5)CC4)c4ccncc43)ncc3ccccc23)cn1 [Example 2011] yielded an EC50 of 21 nM.
NC1(CNC(=O)N2CC3(C2)C(=O)N(Cc2ncc4ccccc4c2-c2cncc(F)c2)c2ccccc23)CC1 [Example 2004] showed an EC50 of 3 nM.
For NC(=O)c1ccc(-c2c(CN3C(=O)C4(CN(C(=O)C5(N)CC5)C4)c4ccccc43)ncc3ccccc23)cn1 [Example 2008], the EC50 was 15 nM.
CS(=O)(=O)N1CCC2(CC1)C(=O)N(Cc1ncc3ccccc3c1-c1cn[nH]c1)c1cnccc12 [Example 2029] showed an EC50 of 2.6 nM.
In the case of O=c1n(Cc2ncc3ccccc3c2CCCCF)c2cnccc2n1C1CC1 [Example 57, 1-Cyclopropyl-3-((4-(4-fluorobutyl)isoquinolin-3-yl)methyl)-1H-imidazo[4,5-c]pyridin-2(3H)-one], the EC50 is reported as 3.4 nM.
In the case of O=C(C1CCNCC1)N1CCC2(CC1)C(=O)N(Cc1ncc3ccccc3c1-c1cccnc1)c1cnccc12 [Example 140, 1-(piperidine-4-carbonyl)-1′-((4-(pyridin-3-yl)isoquinolin-3-yl)methyl)spiro[piperidine-4,3′-pyrrolo[2,3-c]pyridin]-2′(1′H)-one], the EC50 is reported as 3.4 nM.

Same assay, conditions: human respiratory syncytial virus, HEp-2, 72 h, read-out: EC50 (nm)
COC(=O)N1CC2(C1)C(=O)N(Cc1ncc3ccccc3c1-c1ccc(C#N)c(F)c1)c1ccccc12 [Example 93, Methyl 1′-((4-(4-cyano-3-fluorophenyl)isoquinolin-3-yl)methyl)-2′-oxospiro[azetidine-3,3′-indoline]-1-carboxylate] was tested, and the EC50 was 4.4 nM.
Work on COC(=O)N1CC2(C1)C(=O)N(Cc1ncc3ccccc3c1-c1ccc(C#N)cn1)c1ccccc12 [Example 101, Methyl 1′-((4-(5-cyanopyridin-2-yl)isoquinolin-3-yl)methy)-2′-oxospiro[azetidine-3,3′-indoline]-1-carboxylate] yielded an EC50 of 11 nM.
With COC(=O)N1CCC2(CC1)C(=O)N(Cc1ncc3ccccc3c1-c1ccc(C#N)nc1)c1cnccc12 [Example 13, Methyl 1′-((4-(6-cyanopyridin-3-yl)isoquinolin-3-yl)methyl)-2′-oxo-1′,2′-dihydrospiro[piperidine-4,3′-pyrrolo[2,3-c]pyridine]-1-carboxylate] the EC50 was 3 nM.
With CN1CC2(C1)C(=O)N(Cc1ncc3ccccc3c1CCCCO)c1ccccc12 [Example 41, 1′-((4-(4-Hydroxybutyl)isoquinolin-3-yl)methyl)-1-methylspiro[azetidine-3,3′-indolin]-2′-one] the EC50 was 660 nM.
